Measured values from patent publication US9278970B2, “Co-crystals of tadalafil and a hydroxy-substituted benzoic acid coformer as phosphodiesterase type 5 inhibitors” (Laboratorios Senosiain S.A. de C.V., priority 2012, dated 2016).

Key:
[1] = physicochemical stability of the new solid forms
From the text: Although there is good understanding of the physicochemistry of the cocrystal components, their elucidation a priori is almost impossible, as the interactions which determine the structure are relatively weak and the number of degrees of freedom for the optimization problem is immeasurable. For these reasons, the new solid forms disclosed herein are not obvious to a person skilled in the art. Further, the cocrystals and solvates of the present invention have shown physicochemical stability, allowing their use in pharmaceutical compositions. The present invention worked, among others, with the following coformers: aliphatic carboxylic acids, aromatic carboxylic acids, aromatic hydroxycarboxylic acids, aliphatic hydroxycarboxylic acids, aromatic heterocyclic amides, amino acid derivatives, polyphenols, alcohols such as xylitol and aromatic aminocarboxylic acids such as 3-aminobenzoic acid. A new solid form (NSF) which was stable with 3-hydroxybenzoic acid was found in the different assays of the present invention. The obtained NSF corresponds to a compound wherein the neutral coformer has a hydroxyl group and a carboxylic acid, and further contains a phenyl group as part of its structure.

[2] = in therapeutic concentrations; cited from earlier work
[3] = cited from earlier work
[4] = neutral form, D+ isomer (6R,12R); cited from earlier work

SMILES	physicochemical stability of the solid form [1]	plasmatic tadalafil bonded to proteins [2] [%]	eliminated in faeces, predominantly as metabolites ([3]; faeces)	eliminated in urine, predominantly as metabolites ([3]; urine)	solubility in water [4]
CN1CC(=O)N2[C@H](c3ccc4c(c3)OCO4)c3[nH]c4ccccc4c3C[C@@H]2C1=O.O=C(O)c1cccc(O)c1	stable				
CN1CC(=O)N2[C@H](c3ccc4c(c3)OCO4)c3[nH]c4ccccc4c3C[C@@H]2C1=O [tadalafil]		94	approximately 61 % of the dose	approximately 36 % of the dose	almost insoluble in water
